Assay results from the supplement of paper PMC10307832.

Key:
Experiment in all cases: relative viability (nuclei count vs DMSO), 5 days (fraction); higher = more cells survive
Carboplatin + Trametinib = compound: C1CC(C1)(C(=O)O)C(=O)O.[NH2-].[NH2-].[Pt+2] [Carboplatin] + CC(=O)Nc1cccc(-n2c(=O)n(C3CC3)c(=O)c3c(Nc4ccc(I)cc4F)n(C)c(=O)c(C)c32)c1 [Trametinib] (partner 0.02 µM)
Procedure, shortened: (§1)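 Nuclei were stained with Hoechst during a one-step fixation (final 0.05% Triton X-100, 1% formaldehyde, 1 ug/ml Hoechst) carried out 5 days after dosing, then counted on 4× images. The cells, lung cancer lines in 1536-well plates, had been dosed by pin tool the day after seeding with one drug alone or a fixed anchor-drug dose plus five library-drug doses (not always all listed) in √10 steps. Relative viability is the nuclei count in treated wells divided by that in vehicle wells, and each value is the median of duplicate plates.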

Carboplatin + Pemetrexed = compound: C1CC(C1)(C(=O)O)C(=O)O.[NH2-].[NH2-].[Pt+2] [Carboplatin] + Nc1nc2[nH]cc(CCc3ccc(C(=O)N[C@@H](CCC(=O)O)C(=O)O)cc3)c2c(=O)[nH]1 [Pemetrexed] (partner 0.2 µM)
Procedure, shortened: as §1

MLN4924 + Alpelisib = compound: NS(=O)(=O)OC[C@@H]1C[C@@H](n2ccc3c(N[C@H]4CCc5ccccc54)ncnc32)C[C@@H]1O [MLN4924] + Cc1nc(NC(=O)N2CCC[C@H]2C(N)=O)sc1-c1ccnc(C(C)(C)C(F)(F)F)c1 [Alpelisib] (partner 2 µM)
Procedure, shortened: as §1

MLN4924 + Decitabine = compound: NS(=O)(=O)OC[C@@H]1C[C@@H](n2ccc3c(N[C@H]4CCc5ccccc54)ncnc32)C[C@@H]1O [MLN4924] + Nc1ncn([C@H]2C[C@H](O)[C@@H](CO)O2)c(=O)n1 [Decitabine] (partner 2 µM)
Procedure, shortened: as §1

Cell Line	relative viability (Carboplatin + Trametinib; first compound 0.08 µM)	relative viability (Carboplatin + Trametinib; first compound 0.253 µM)	relative viability (Carboplatin + Trametinib; first compound 0.8 µM)	relative viability (Carboplatin + Trametinib; first compound 2.53 µM)	relative viability (Carboplatin + Trametinib; first compound 8 µM)	relative viability (Carboplatin + Pemetrexed; first compound 0.08 µM)	relative viability (Carboplatin + Pemetrexed; first compound 0.253 µM)	relative viability (Carboplatin + Pemetrexed; first compound 0.8 µM)	relative viability (Carboplatin + Pemetrexed; first compound 2.53 µM)	relative viability (Carboplatin + Pemetrexed; first compound 8 µM)	relative viability (MLN4924 + Alpelisib; first compound 0.04 µM)	relative viability (MLN4924 + Alpelisib; first compound 0.1265 µM)	relative viability (MLN4924 + Alpelisib; first compound 0.4 µM)	relative viability (MLN4924 + Alpelisib; first compound 1.265 µM)	relative viability (MLN4924 + Alpelisib; first compound 4 µM)	relative viability (MLN4924 + Decitabine; first compound 0.04 µM)	relative viability (MLN4924 + Decitabine; first compound 0.1265 µM)	relative viability (MLN4924 + Decitabine; first compound 0.4 µM)	relative viability (MLN4924 + Decitabine; first compound 1.265 µM)	relative viability (MLN4924 + Decitabine; first compound 4 µM)
HOP-62	0.393	0.359	0.385	0.393	0.363	0.416	0.328	0.332	0.328	0.308	0.903	0.627	0.29	0.0619	0.0676	0.195	0.201	0.0844	0.0618	0.0785
COR-L 105	0.472	0.445	0.441	0.456	0.442	1.13	1.27	1.18	0.854	0.615	0.836	0.702	0.413	0.257	0.31	0.658	0.523	0.397	0.263	0.328
PC-3 [JPC-3]	0.781	0.67	0.628	0.616	0.65	1.28	0.986	1.02	0.939	0.889	0.996	0.963	0.896	0.327	0.266	0.808	0.83	0.408	0.46	0.451
NCI-H2347	0.319	0.271	0.244	0.287	0.265	0.432	0.452	0.403	0.407	0.525	1.02	0.865	0.638	0.33	0.382	0.623	0.694	0.495	0.413	0.335
SW 1573	0.677	0.539	0.528	0.555	0.387	0.92	0.924	1.18	1.01	0.569	1.01	0.974	0.957	0.155	0.0628	0.525	0.313	0.158	0.0741	0.0974
NCI-H838	0.558	0.519	0.536	0.515	0.541	0.271	0.285	0.236	0.244	0.251	0.795	0.658	0.261	0.168	0.148	0.351	0.257	0.224	0.176	0.186
HCC-44	1.14	1.08	1.02	1.1	0.903	0.637	0.684	0.569	0.535	0.606	0.7	0.347	0.162	0.15	0.134	0.874	0.85	0.582	0.421	0.399
HCC-78	0.828	0.587	0.653	0.674	0.73	0.898	0.905	0.893	0.883	0.854	0.429	0.253	0.536	0.149	0.139	0.685	0.775	0.485	0.27	0.244
A-427	0.85	0.812	0.747	0.81	0.739	1.03	1.01	0.942	0.897	1.05	0.728	0.334	0.28	0.183	0.2	0.445	0.421	0.309	0.282	0.265
SK-MES-1	0.645	0.469	0.524	0.556	0.565	1.04	0.928	0.92	0.972	0.843	0.99	0.882	0.87	0.232	0.185	0.405	0.339	0.233	0.16	0.205
NCI-H460	0.161	0.139	0.155	0.0949	0.0458	0.0702	0.0594	0.0708	0.068	0.0641	0.677	0.688	0.662	0.0819	0.0199	0.524	0.462	0.325	0.0402	0.0249
LK-2	0.772	0.973	0.624	0.58	0.846	0.336	0.314	0.273	0.233	0.289	0.991	0.886	0.667	0.267	0.299	0.228	0.253	0.216	0.118	0.156
NCI-H2085	0.498	0.558	0.512	0.518	0.527	1.03	0.846	0.974	0.948	0.899	0.921	1.01	0.94	0.743	0.416	0.492	0.58	0.612	0.48	0.424
NCI-H650	1.01	1.08	1	0.849	0.818	0.935	0.97	0.947	1	0.903	1.06	0.513	0.339	0.204	0.232	0.272	0.253	0.201	0.167	0.165
NCI-H2170	0.911	1.02	0.966	0.814	0.717	0.246	0.252	0.265	0.286	0.236	0.906	0.555	0.457	0.169	0.171	0.444	0.249	0.273	0.167	0.144
LC-2-ad	0.91	0.934	0.923	0.882	0.8	0.278	0.28	0.294	0.308	0.272	0.834	0.729	0.41	0.153	0.0751	0.791	0.748	0.585	0.508	0.322
